Counter-ions that a name gives are not always drawn. Like-named read-outs stand apart in the source and are kept apart here.
Columns and labels:
recombinant HparOBP14 = recombinant HparOBP14 (Holotrichia parallela, UniProt A0A0G2YD86); assay: biochemical; assay type: binding; settings: for binding ability with HparOBP14: 1-NPN displacement, Figure 5
Procedure: To determine the affinity of HparOBP14 to odorant volatiles, the fluorescent displacement binding assay was carried out. A total of 27 compounds was selected, including 7 compounds from host plant (elm) volatiles, 11 compounds from organic fertilizer volatiles, and 9 compounds common in both of them. The odorant compounds (purity ≥95%) were purchased from Sigma-Aldrich. The fluorescent probe N-phenyl-1-naphthylamine (1-NPN) was dissolved in methanol (chromatographic grade) to a final concentration of 1 mM and used as the stock solution. The stock solution of the purified protein was diluted with Tris-HCl (50 mmol/L, pH 7.4) to a final concentration of 2 μM and added into a colorimetric plate cuvette. The 1-NPN stock solution was then successively added to the protein solution to the final concentrations ranging from 2 μM to 20 μM. The fluorescence changes were recorded to get K1-NPN, the dissociation constant of the complex HparOBP14/1-NPN.
The binding ability of HparOBP14 to the odorant compounds was determined by titrating the mixture of the protein and the 1-NPN (final concentration 2 μM of both) with each odorant compound at final concentrations ranging from 2 μM to 40 μM. The competitive dissociation constant was calculated from the corresponding IC50 values using the following equation: Ki = [IC50]/(1+ [1-NPN]/K1-NPN), where [1-NPN] is the free concentration of 1-NPN; K1-NPN is the dissociation constant of the complex HparOBP14/1-NPN.
The fluorescence changes during the binding of either 1-NPN or odorant compounds to the HparOBP14 protein were measured and recorded with the excitation wavelength of 337 nm and within a wavelength range of 350~550 nm by a 970CRT fluorescence spectrophotometer (Yidian Analytical Instrument Company, Shanghai, China).

[1] = test system: female Holotrichia parallela adults; assay: Y-tube olfactometer behavioral bioassay; assay type: in vivo; settings: for change of attraction after injection of dsHparOBP14: dsHparOBP14-injected females; for behavioral response of uninjected female beetles: uninjected females, vs paraffin oil
Procedure: (§1) The dsRNAs of HparOBP14 and GFP (GenBank number: ACY56286) (for primers, see Table S1) were synthesized using a T7 Ribo MAX™ Express RNAi System (Promega, Madison, WI, USA) according to the manufacturer’s instructions. The GFP-dsRNA was used as the negative control. Nine-to-eleven-day-old female adult beetles were injected with 2 μg dsRNA into the adult head with a 5 μL injection needle (7000 series syringes, Hamilton, USA), then kept under the same condition as 2.1 described above. The antennae were dissected at 24 h, 48 h, 72 h, and 96 h after injection, and the samples were stored at −80 °C for further RT-qPCR analyses.
The Y-tube olfactometer mainly consisted of a Y-shaped glass tube (main arm, 30 cm; sidearm, 20 cm; inner diameter, 2.5 cm; side arm angle, 60 degrees), an air sampler, a drying tower, a gas scrubber, and a flow meter. Two gas-washing cylinders were successively connected with the flow meter, drying tower, air pump, and Y-shaped glass tube through rubber pipes. The testing compound (concentration 1 μg/μL in paraffin oil) and paraffin oil (as control) were taken and dropped respectively into a rubber septum (Pherobio Technology Co., Ltd., Beijing, China) and placed respectively into the side arms of the Y-tube. The flow rate of the atmospheric air sampler was adjusted to 500 mL/min.
A female adult beetle was introduced into the main arm at the downwind end of the Y-olfactometer. Each beetle was given 5 min to respond to the treatment, and the first choice that the beetle made for each of the lateral arms was recorded. The response was regarded as valid only if the beetle crawled more than 3 cm into a lateral arm and stayed for more than 1 min.
For each compound, more than 90 beetles were tested individually until 90 responsive beetles were obtained. Each individual beetle was tested only once, and the Y-olfactometer was replaced after every 10 beetles were tested to eliminate the odor effect. The number of individual beetles that selected the compound-treated arm of the Y-olfactometer was statistically compared with the number of beetles that selected the solvent-treated arm using a Chi-square goodness of fit test.

[2] = test system: antennae of H. parallela female adults; assay: Electroantennogram (EAG) recording after dsRNA injection; assay type: in vivo, Holotrichia parallela; settings: 20 μL of 1 μg/μL in paraffin oil; for change of EAG responsive amplitude in dsHparOBP14-injected insects compared to uninjected control: 48 h after dsHparOBP14 injection; for EAG response: female adults
Procedure: as §1
The EAG recording was conducted on the adult antennae with the EAG micromanipulator MP-15 and analyzed with EAG-Pro (Syntech, Kirchzarten, Germany). Briefly, two ends of the antennae were set on electrode holders with a conductive adhesive (Spectra 360 electrode gel). An ashless filter paper (Hangzhou Special Paper Co., Ltd., Hangzhou, China) was cut into strips (3 cm × 0.5 cm). A 20 μL compound solution (concentration 1 μg/μL in paraffin oil) was applied onto the paper strip which was then placed in a Pasteur tube (17 cm × […]) and applied to the antennae by purified air at a flow rate of 1 L/min. The paraffin oil (20 μL) was used as a control. The stimulus recording time was 0.5 s and the interval between two stimulations was more than 1 min.

[3] = HparOBP14 and 1-NPN 2 µM each, titrated with compound 2–40 μM
[4] = HparOBP14 and 1-NPN 2 µM each, titrated with compound 2–40 μM, read-out: IC50
[5] = calculated from IC50: Ki = [IC50]/(1+[1-NPN]/K1-NPN), read-out: Ki

Chain of recombinant HparOBP14 (A0A0G2YD86 entry or part of it): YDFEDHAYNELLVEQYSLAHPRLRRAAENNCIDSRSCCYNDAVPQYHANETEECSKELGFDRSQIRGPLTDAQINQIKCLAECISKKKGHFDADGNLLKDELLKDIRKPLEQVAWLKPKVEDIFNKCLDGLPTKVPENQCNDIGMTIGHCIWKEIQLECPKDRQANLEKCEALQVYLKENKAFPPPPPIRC

Compound | IC50 (recombinant HparOBP14) [µM] | Ki (recombinant HparOBP14) [µM] | Int (%): relative fluorescence intensity of 1-NPN/HparOBP14 complex after the addition of testing compound (recombinant HparOBP14; [3]) [%] | change of attraction after injection of dsHparOBP14 [1] | behavioral response of uninjected female beetles [1] | change of EAG responsive amplitude in dsHparOBP14-injected insects compared to uninjected control [2] | IC50 (recombinant HparOBP14; [4]) [µM] | Ki (recombinant HparOBP14; [5]) [µM] | EAG response [2] | binding ability with HparOBP14 (recombinant HparOBP14) | Kd (recombinant HparOBP14) [µM]
CCCC(=O)O [butyric acid] | > 40 | > 34.1 | 99.07 | – | – | – | – | – | – | – | –
c1ccc2[nH]ccc2c1 [indole] | > 40 | > 34.1 | 82.23 | – | – | – | – | – | – | – | –
Cc1ccc(C(C)C)cc1 [p-cymene] | 29.9 | 25.5 | 62.70 | no obvious change | attracted | decreased significantly | – | – | – | – | –
Cc1ccc(O)cc1 [p-cresol] | > 40 | > 34.1 | 91.23 | – | – | – | – | – | – | – | –
CCCCCCCC=O [octanal] | – | – | – | – | – | – | > 40 | > 34.1 | – | – | –
C=CCc1ccc(O)c(OC)c1 [eugenol] | > 40 | > 34.1 | 86.03 | – | – | – | – | – | – | – | –
CCCCCCO [1-hexanol] | > 40 | – | 72.19 | – | – | – | – | > 34.1 | – | – | –
Cc1c[nH]c2ccccc12 [3-methylindole] | – | – | 56.22 | no obvious change | attracted | do not change significantly | 24.6 | 21 | clear responses | – | –
CCCCCCCCC=O [1-nonanal] | – | – | 69.22 | – | – | – | > 40 | > 34.1 | – | – | –
CC1=CCC2CC1C2(C)C (stereo not drawn) [α-pinene] | 38.5 | 32.8 | 67.49 | significantly increased | attracted | decreased significantly | – | – | – | – | –
CC1=CC[C@H](C(C)C)C=C1 (racemic) [α-phellandrene] | > 40 | > 34.1 | 83.00 | – | – | – | – | – | – | weaker, or no, binding ability | –
CCCCCCCO [1-heptanol] | > 40 | – | 83.41 | – | – | – | – | > 34.1 | – | – | –
CCCCC(CC)CO (stereo not drawn) [2-ethylhexanol] | – | – | 85.80 | – | – | – | > 40 | > 34.1 | – | weaker, or no, binding ability | –
C=C1C2CCC(C2)C1(C)C (stereo not drawn) [camphene] | – | – | 83.88 | – | – | – | > 40 | > 34.1 | – | – | –
C=C1CC/C=C(\C)CC[C@@H]2[C@@H]1CC2(C)C [β-caryophyllen] | – | – | – | – | – | – | > 40 | > 34.1 | – | – | –
CC(=O)CCC=C(C)C [6-methyl-5-hepten-2-one] | 32 | 28.2 | 61.66 | significantly increased | attracted | do not change significantly | – | – | clear responses | – | –
CCCC(O)CC (stereo not drawn) [3-hexanol] | – | – | 84.27 | – | – | – | > 40 | > 34.1 | – | – | –
CC(C)=CCC/C(C)=C/CO [geraniol] | 40 | 34.1 | 72.07 | markedly reduced | attracted | decreased significantly | – | – | – | – | –
CCCCCCCCCCCC=O [dodecyl aldehyde] | – | – | 92.42 | – | – | – | > 40 | > 34.1 | – | – | –
CO [methanol] | – | – | 65.66 | markedly reduced | attracted | decreased significantly | 32.1 | 27.4 | – | – | –
c1ccc(Nc2cccc3ccccc23)cc1 [1-NPN, N-phenyl-1-naphthylamine, reference compound] | – | – | – | – | – | – | – | – | – | – | 5.8
CCCCCCCCCC=O [decanal] | – | – | 77.88 | – | – | – | > 40 | > 34.1 | – | – | –
CC1=CCC2C(C1)C2(C)C (stereo not drawn) [3-carene] | – | – | 68.52 | – | – | – | > 40 | > 34.1 | – | – | –
CC/C=C\CCOC=O [cis-3-hexenyl formate] | – | – | 81.25 | – | – | – | > 40 | > 34.1 | – | weaker, or no, binding ability | –
CC/C=C\CCO [(Z)-3-hexen-1-ol] | > 40 | > 34.1 | 96.53 | – | – | – | – | – | – | – | –
C=CC(C)(O)CCC=C(C)C (stereo not drawn) [linalool] | > 40 | > 34.1 | 89.20 | – | – | – | – | – | – | weaker, or no, binding ability | –
C=O [formaldehyde] | – | – | 68.91 | no obvious change | attracted | decreased significantly | 34.6 | 29.5 | – | – | –
CC/C=C\CCOC(C)=O [cis-3-hexenyl acetate] | – | – | 81.43 | – | – | – | > 40 | > 34.1 | – | weaker, or no, binding ability | –

From publication PMC8151400, “Evidence of the Involvement of a Plus-C Odorant-Binding Protein HparOBP14 in Host Plant Selection and Oviposition of the Scarab Beetle Holotrichia parallela” (Insects, 2021)
